Measurements as given in patent US4803221A, “Anthracene derivatives” (priority 1987, dated 1989).
Where a name gives a salt, the structure may show the parent alone. Read-outs that look alike come from different tables or passages of the source.

Tests used:
[1] = tested on: lymphocytic leukemia P388/0; test: Lymphocytic Leukemia P388/0 Test; assay type: in vivo, mouse (CD2-F1); set-up: LD20: unit: mg/kg; settings: ip days 1, 5, 9; for LD20: doses on a mg/kg basis; for T/C × 100% (Excluding 30 Day Survivors): median survival time treated/control, at the optimal dose of the compound (Table I), active if ≥120%
Source text: (§1) Methods for evaluating the antitumor activity of these compounds are essentially those used in the Tumor Panel by the Developmental Therapeutics Program, Division of Cancer Treatment, National Cancer Institute, A. Goldin, et al., Methods in Cancer Research, Vol. XVI, p.165, Academic Press (1979). Some modifications, in dose level and schedule have been made to increase the testing efficiency.
(§2) CD2-F1 mice, of the same sex, weighing 20±3 g are used for this test. Control and test animals are injected intraperitoneally with a suspension of ~10^6 viable P388/0 tumor cells on day 0. In each test, several dose levels which bracket the LD20 of the compound are evaluated; each dose level group contains six animals. The test compounds are prepared either in physiologic saline containing 0.05% Tween 80 or distilled water containing 5% dextrose and are administered intraperitoneally on days 1, 5, and 9 relative to tumor implant. Doses are on a mg/kg basis according to individual animals' body weights. The day of death for each animal is recorded, the median identified for each group and the ratios of median survival time for treated (T)/control (C) Groups are calculated. The criterion for activity is T/C×100≥120%.

Candida albicans = test: Antifungal testing against Candida albicans (CN 1863); assay type: cell-based, Candida albicans (CN1863); settings: Wellcotest sensitivity test agar plus 7% lysed horse blood
Source text: Antifungal testing against Candida albicans (CN 1863) was done with slight modifications using a combination of broth and agar dilution assays as outlined in Laboratory Handbook of Medical Mycology, Chapter 6, pages 441-446, M. R. McGinnis, Academic Press, New York, NY, 1980
Medium: Wellcotest ® sensitivity test agar plus 7% lysed horse blood.

[2] = Antibacterial screening against Mycoplasma smegmatis; assay type: cell-based
Source text: (§3) Antibacterial test against Mycoplasma smegmatis (S3264) and Streptococcus pyogenes (CN10) was done with slight modifications using standard agar dilution assays as outlined in Manual of Clinical Microbiology Second Ed., E. H. Lennette, E. H. Spaulding and J. P. Truant Eds., American Society for Microbiology, Washington, DC, 1974.

[3] = tested on: Nippostrongylus brasiliensis; test: Anthelmintic screening against Nippostrongylus brasiliensis; assay type: cell-based
Source text: Anthelmintic testing against Nippostrongylus brasiliensis was done using methods outlined in D. C. Jenkins, R. Armitage, and T. S. Carrington, Zeitschrift for Parasitenkunde 63, 261-269 (1980)

LD50 Tests = settings: in vivo; IP single dose, CD-1 male mouse
Source text: |(IP single dose - CD-1 Male Mouse)

[4] = tested on: lymphocytic leukemia L1210; test: Lymphocytic Leukemia L1210 Test; assay type: in vivo, mouse (CD2-F1); settings: median survival; ip days 1, 5, 9; dose: 3C 110, 4C 150 mg/kg; active if >125%
Source text: as §1
The protocol for this test is identical to that for P388/0, except that the number of L1210 cells implanted on day 0 is […]. The mouse CD2-F1 strain is used, and the criterion for activity is T/C×100 >125%.

Lewis lung carcinoma = test: Lewis Lung Carcinoma Test; assay type: in vivo, mouse (BD-F1); settings: median survival, iv tumor cells; dosing days 1, 5, 9; dose: 3C 130, 4C 200 mg/kg; active if ≥140%
Source text: as §1
This tumor arose spontaneously in the lung of a C57B1/6 mouse and is maintained by subcutaneous passage in that strain. The solid tumor is excised aseptically and placed in sterile saline. Pieces of viable tumor tissue are minced finely with scissors and forced through a 200 mesh stainless steel screen to disaggregate the tumor cells into a suspension. 10^6 Viable cells are injected intravenously into the tail vein of BD-F1, mice of the same sex weighing 20±3 g. In each test, several dose levels which bracket the L20 for the compound are evaluated. Ten animals are included in each dose level grup, and twenty animals in the untreated control group. The test compounds are prepared and administered on days 1, 5, and 9 as in the P388/0 protocol. The day of death for each animal is recorded, the median identified for each group and the ratios of median survival time for treated (T)/control (C) groups are calculated. The criterion for activity is T/C×100≥140%.

M5076 sarcoma = test: M5076 Sarcoma Test; assay type: in vivo, mouse (B6C3-F1); settings: survival; 110 mg/kg; ip days 1, 5, 9; active if ≥125%
Source text: as §1
This sarcoma arose as a solid tumor in the ovary of a C57Bl/6 mouse and was subsequently converted to the ascitic form for intraperitoneal use. The protocol for this test is identical with that for P388/0. The B6C3-F1mouse strain is used and the criterion for activity is T/C×100≥125%.

[5] = Lymphocytic Leukemia P388/0 Test; assay type: in vivo, mouse (CD2-F1); set-up: LD20: unit: mg/kg; settings: mouse, in vivo; ip days 1, 5, 9; doses on a mg/kg basis; read-out: highest nontoxic dose where the LD20 was not determined (values in parentheses in LD20 column)
Source text: as §1, §2

Herpes simplex 1/vero = Herpes simplex 1/vero plaque inhibition screen; assay type: cell-based; settings: plaque inhibition screen
Source text: The column headings labeled Score, Toxicity, and Zone of Inhibition refer to the plaque inhibition screen while the IC50 heading to the plaque reduction screen.

Streptococcus pyogenes = test: Antibacterial testing against Streptococcus pyogenes (CN10); assay type: cell-based; settings: agar dilution
Source text: as §3

Colon 38 carcinoma = test: Colon 38 Carcinoma Test; assay type: in vivo, mouse (C57Bl/6); settings: tumor weight, day 20; 150 mg/kg ip days 1, 5, 9; active if ≤42%
Source text: as §1
This chemically-induced tumor arose in a C57Bl/6 mouse and is maintained as a solid tumor in that mouse strain. The subcutaneously growing solid tumor is aseptically excised from passage mice and placed in sterile saline. The tumor is trimmed free of visible necrotic and connective tissue, then divided into 2-3 mm cubes. A cube is implanted subcutaneously in the ventral thoracic region with a sterile trochar on day 0. In each test several dose levels which bracket the LD20 for the compound are evaluated. Ten animals are included in each dose level group and thirty animals in the untreated control group. The test compounds are prepared either in physiologic saline containing 0.05% Tween 80 or distilled water containing 5% dextrose and are administered intraperitoneally on days 1, 5 and 9 after tumor implant. […] At day 20, the animals are sacrificed and the longest (L) and shortest (W) dimensions of each tumor measured with vernier calipers. Tumor weight is calculated from the formula [formula] […]

[6] = immature - free living stages, read-out: MIC

SMILES | LD20 [1] | T/C × 100% (Excluding 30 Day Survivors) [1] | MIC [2] [µg/mL] | LD50 (LD50 Tests) [mg/kg] | further results
CC(CO)(CO)NCc1c2ccccc2cc2ccccc12.Cl [Example 1, 2-((9-Anthracenylmethyl)amino)-2-methyl-1,3-propanediol hydrochloride] | 150 | +130% | < 5 | 160 | MIC (Candida albicans): > 50 µg/mL; MIC [3, 6]: ≥ 50 µg/mL
CSc1c2ccccc2c(CNC(C)(CO)CO)c2ccccc12 [Example 3C, 2-Methyl-2-(((10-methylthio-9-anthracenyl)methyl)amino)-1,3-propanediolmethanesulfonate] | 70 | +227% | – | – | T/C × 100% Excluding 30 day Survivors [4]: +194%; T/C × 100% Excluding 60 day Survivors (Lewis lung carcinoma): +145%; T/C × 100% (M5076 sarcoma): +132%
CC(CO)(CO)NCc1c2ccccc2c(OCCO)c2ccccc12 [Example 25B, 2-(((10-(2-hydroxyethoxy)-9-anthracenyl)methyl)amino)-2-methyl-1,3-propanediol hydrochloride 1/2H2 O 1/10EtOH] | 67 | +300% | – | 110 | –
CC(CO)(CO)NCc1c2cccc(Cl)c2cc2c(Cl)cccc12.Cl [Example 10B, 2-(((4,5-dichloro-9-anthracenyl)methyl)amino)-2-methyl-1,3-propanediol hydrochloride] | – | +204% | – | – | MTD [5]: 450 mg/kg; Zone of Inhibition (Herpes simplex 1/vero): 32
CC(CO)(CO)NCc1c2ccccc2c(Cl)c2ccccc12.Cl [Example 2A, 2-(((10-chloro-9-anthracenyl)methyl)amino)-2-methyl-1,3-propanediol hydrochloride] | 556 | +228% | 10 | 250 | MIC [3, 6]: ≥ 50 µg/mL
COc1c2ccccc2c(CNC(C)(CO)CO)c2ccccc12.Cl [Example 13B, 2-(((10-Methoxy-9-anthracenyl)methyl)amino)-2-methyl-1,3-propanediol hydrochloride] | 120 | +220% | ≤ 10 | – | Zone of Inhibition (Herpes simplex 1/vero): 40; MIC (Streptococcus pyogenes): 100 µg/mL
CC(CO)(CO)NCc1c2ccccc2cc2c(Cl)cccc12.Cl [Example 11B, 2-(((4-Chloro-9-anthracenyl)methyl)amino)-2-methyl-1,3-propanediol hydrochloride] | 200 | +215% | ≤ 10 | – | MIC (Streptococcus pyogenes): ≤ 10 µg/mL
CSc1c2ccccc2c(CNC(C)(CO)CO)c2ccccc12.Cl [Example 3B, 2-methyl-2-(((10-methylthio-9-anthracenyl)methyl)amino)-1,3-propanediol hydrochloride] | 120 | +262% | – | 100 | –
CC(CO)(CO)NCc1c2ccccc2c(CCCl)c2ccccc12 [Example 4C, 2-(((10-(2-Chloroethyl)-9-anthracenyl)methyl)amino)-2-methyl-1,3-propanediol methanesulfonate] | 130 | +218% | – | – | T/C × 100% Excluding 30 day Survivors [4]: +217%; T/C × 100% Excluding 60 day Survivors (Lewis lung carcinoma): +154%; T/C × 100% (Colon 38 carcinoma): 38%
Cc1c2ccccc2c(CNC(C)(CO)CO)c2ccccc12 [Example 7, 2-methyl-2-(((10-methyl-9-anthracenyl)methyl)amino)-1,3-propanediol hydrochloride.1/2H2 O] | 140 | +160% | – | – | MIC [3]: 50 µg/mL
